Reference: US20090054453A1, “Novel Tetralins as 5-HT6 Modulators” (priority 2006, published 2009)
pKi: −log10 of the molar value.

Target: T1, rat striatal 5-HT6 receptors (Rattus norvegicus, UniProt P31388)
T1 construct: Striatal tissue from adult rats (Sprague-Dawley, 320-370 g, B & K Sweden) were dissected out, weighed and homogenized; from tissue; host or cells: rat striatum (Sprague-Dawley) membranes
Assay: [125I]SB258585 binding to rat striatal 5-HT6 receptors
Details: competition with [125I]SB258585, rat striatal membranes
Protocol: Method for [125I]SB258585 binding to rat striatal 5-HT6 receptors
[^125I]SB258585 (1) with specific radioactivity 2000 Ci/mmol was purchased from Amersham Biosciences Europe GmbH, Freiburg, Germany. Other chemicals were purchased from commercial sources and were of analytical grade.
Striatal tissue from adult rats (Sprague-Dawley, 320-370 g, B & K Sweden) were dissected out, weighed and homogenized in buffer containing 50 mM Tris-HCl, 4 mM MgCl2, 1 mM EDTA, 10 μM pargyline and protease inhibitor (Complete, Roche Diagnostics) pH 7.4 using an Ultra-Turrax T8 (IKA Labortechnik, Germany). The tissue homogenate was centrifuged at 48 000×g for 10 min and the pellet was resuspended and recentrifuged as above. […]
Saturation binding studies were carried out in duplicate with 1-3 mg w.w. per tube in 0.5 ml buffer (50 mM Tris, 4 mM MgCl2, 100 mM NaCl, 1 mM EDTA, 5 mM ascorbate and 10 μM pargyline at pH 7.4), 0.2 nM [^125I]SB258585 and unlabelled SB258585 to give a final concentration range of 0.23-20 nM (12 conc.). Non-specific binding was determined in the presence of 10 μM methiothepin. […] The radioactivity was determined in a Packard Tri-Carb 2900TR liquid scintillation counter. Data were analyzed by non-linear regression analyses using PRISM 4.00 (GraphPad Software Inc., San Diego, Calif.). […]

T1 sequence (P31388 whole entry): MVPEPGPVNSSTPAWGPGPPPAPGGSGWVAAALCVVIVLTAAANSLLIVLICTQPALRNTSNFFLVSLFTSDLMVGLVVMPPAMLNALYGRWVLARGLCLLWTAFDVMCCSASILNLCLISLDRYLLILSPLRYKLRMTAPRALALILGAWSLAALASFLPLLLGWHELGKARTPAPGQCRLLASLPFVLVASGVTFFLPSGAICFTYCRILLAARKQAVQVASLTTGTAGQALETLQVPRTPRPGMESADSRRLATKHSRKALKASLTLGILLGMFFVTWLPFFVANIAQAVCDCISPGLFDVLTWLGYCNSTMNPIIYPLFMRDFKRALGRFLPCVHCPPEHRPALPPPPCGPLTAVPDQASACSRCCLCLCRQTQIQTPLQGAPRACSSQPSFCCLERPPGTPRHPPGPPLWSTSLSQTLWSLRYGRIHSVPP

CN1CCN(c2cccc3c2C[C@H](NS(=O)(=O)c2ccc4ccccc4c2)CC3)CC1 [Example 12, N-[(2R)-8-(4-Methylpiperazin-1-yl)-1,2,3,4-tetrahydronaphthalen-2-yl]naphthalene-2-sulfonamide]
pKi: 9.10
